Laboratory results: US5684151A, “1-arylsulphonyl, arylcarbonyl and 1-arylphosphonyl-3-phenyl-1,4,5,6-tetrahydropyridazines” (priority 1995, dated 1997)
Where two headings read alike, the source gives them in different places.

Experiments:
[1] = tested on: Human T47D breast carcinoma cells; test: Ex vivo progestational test (T47D proliferation); assay type: cell-based; details: SC200, 3H-thymidine incorporation
Procedure: The progestational activity of the compounds was accessed by their ability to stimulate proliferation of human breast carcinoma cells. Proliferation was measured as the ability to stimulate ^3 H-thymidine incorporation into these cells in vitro. Human T47D breast carcinoma cells (American Type Tissue Collection #133-HTB) were maintained in media consisting or RPMI 1640 supplemented with 10% fetal bovine serum, 10 ug/ml insulin, 10 U/ml pennicillin, 100 ug/ml streptomycin, and 2 mM L-glutamine. Monolayer cell cultures were trypsinized and washed in assay media consisting of phenol red-free RPMI 1640 supplemented with 5% charcoal-stripped, fetal bovine serum, and the other ingredients listed above. Cells were then plated in a 96-well plate. After a 48-hour incubation period at 37° C., the conditioned media was removed and replaced with fresh media containing test compounds in DMSO (0.1% DMSO final concentration). The cell cultures were incubated for 18 to 20 hours at 37° C. ^3 H-thymidine was then added to each well and the cell cultures were incubated at 37° C. for an additional 4 hours. Labelling was stopped by addition of un labelled thymidine. The cultures were washed twice, trypsinized and then harvested onto a filter mat. Incorporated ^3 -H-thymidine was measured by liquid scintillation counting. Data was expressed as a percent stimulation above control level which was set at 100%. An SC200 value was calculated as the concentration of test material needed to stimulate ^3 H-thymidine incorporation 200% of control.
Aspects of the application of the procedure used are described in the following: C. Christensen, D. Gunter, D. Saunders and V. Malviya, Gynecol. Oncol., 28, 25 (1987); J. Puzas, R. Drivdahl, G. Howard and D. Baylink, Proc. Soc. Exp. Biol. Med., 166, 113 (1981); and I. Keydar, L. Chen, S. Karby, F. Weiss, J. Delarea, M. Raduy, S. Chaitcik and H. Brenner, Eur. J. Cancer, 15, 659 (1979)

rabbit endometrium [2] = test: In vivo progestational test (Clauberg Test); design: species or system rabbit (immature New Zealand White female); key: Active in Clauberg Assay; Active in McGinty Assay; details: oral or parenteral, daily for five days
Procedure: Progestational activity was also measured in vivo by the abiity to stimulate the rabbit endometrium after either oral or parenteral administration.
[…]. Starting on the 7th day, the rabbits were given the test material daily for five days. The rabbits were sacrificed approximately 24 hours after the last administration, and the uteri were excised, trimmed and weighed. Portions of both uterine horns were fixed in 10% neutral formalin, sectioned at 6μ and stained with hematoxylin and eosin. Progestational activity was assessed as described above for the McGinty Test.

rabbit endometrium [3] = test: In vivo progestational test (McGinty Test); design: species or system rabbit (immature New Zealand White female); key: Active in Clauberg Assay; Active in McGinty Assay; details: injection into uterine horn, 72 hours
Procedure: Progestational activity was measured in vivo by the ability to stimulate the rabbit endometrium after injection into the uterine horn.
Immature New Zealand White female rabbits were injected subcutaneously for 6 days with 5.0 μg of 17β-estradiol per day. On the 7th day the rabbits were anesthetized, the abdomen opened and a uterine horn exposed. Two ligatures were placed around a segment of the uterus 3-4 cm long, leaving the major blood vessels outside the ties.
The upper ligature was tied tightly, and the lower one was left loose. A needle attached to a syringe was injected in the uterus below the second ligature and up into the area between the two ligatures. As the test material was injected, the ligature was tightened and held tight so that the needle was withdrawn without the loss of fluid. The second ligature was secured and the abdomen closed.
The rabbits were sacrificed approximately 72 hours after the injection. The uteri were removed, fixed in 10% buffered formalin, sectioned at 6μ, and stained with hematoxylin and eosin. The evaluation for endometrial proliferation was made according to a McPhail Index. Each slide was graded for each rabbit on a 0 (no response)-4 (maximum response) scale.

[4] = target: T1, progestin receptor from rabbit uterus (Oryctolagus cuniculus, UniProt P06186); test: Progestin receptor binding (3H-R5020 displacement); details: rabbit uterine cytosol, 4° C., 18 h, read-out: IC50: Binding affinity for the progestin receptor from rabbit uterus
T1 construct: Cytosolic progestin receptor were obtained by mixing rabbit uterine tissue with a Tris buffer; from tissue; host or cells: rabbit uterus cytosol
T1 sequence (P06186 whole entry): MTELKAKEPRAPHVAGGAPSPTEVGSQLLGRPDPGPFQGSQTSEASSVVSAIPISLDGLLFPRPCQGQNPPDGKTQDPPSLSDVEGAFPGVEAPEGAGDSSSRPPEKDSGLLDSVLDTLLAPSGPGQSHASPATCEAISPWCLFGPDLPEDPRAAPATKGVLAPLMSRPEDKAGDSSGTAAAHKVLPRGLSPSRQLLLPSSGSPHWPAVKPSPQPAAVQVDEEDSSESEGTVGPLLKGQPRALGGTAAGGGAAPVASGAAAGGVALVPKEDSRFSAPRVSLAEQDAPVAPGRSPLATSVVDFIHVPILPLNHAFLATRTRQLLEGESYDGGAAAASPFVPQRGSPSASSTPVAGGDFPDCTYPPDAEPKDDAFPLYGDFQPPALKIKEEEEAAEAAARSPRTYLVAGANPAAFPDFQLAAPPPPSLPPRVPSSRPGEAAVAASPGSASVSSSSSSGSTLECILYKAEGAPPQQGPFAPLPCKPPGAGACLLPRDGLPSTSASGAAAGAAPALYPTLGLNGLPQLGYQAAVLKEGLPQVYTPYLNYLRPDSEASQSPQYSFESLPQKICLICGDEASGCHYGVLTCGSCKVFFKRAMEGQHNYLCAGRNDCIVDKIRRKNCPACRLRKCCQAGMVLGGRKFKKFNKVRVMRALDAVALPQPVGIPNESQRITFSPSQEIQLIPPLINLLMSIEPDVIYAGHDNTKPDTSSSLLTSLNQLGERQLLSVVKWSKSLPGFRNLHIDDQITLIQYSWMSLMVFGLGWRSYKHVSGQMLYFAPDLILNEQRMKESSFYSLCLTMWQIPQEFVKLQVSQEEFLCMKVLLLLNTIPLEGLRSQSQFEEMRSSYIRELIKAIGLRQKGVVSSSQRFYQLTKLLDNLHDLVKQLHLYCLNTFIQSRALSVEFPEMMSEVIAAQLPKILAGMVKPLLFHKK
Summary of the method: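 Displacement of the radioligand 3H-R5020 was measured in cytosol from homogenized rabbit uterus (pH 7.4 Tris/EDTA/DTT/molybdate buffer), with compounds at 5% final DMSO and about 18 h at 4 °C. Charcoal removed free ligand, scintillation counting quantified bound ligand, and IC50 was the concentration displacing half.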

[5] = tested on: mouse (MC3T3-E1) and human (TE-85) osteoblast-line cells; assay type: cell-based
Summary of the method: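 Proliferation was read as ^3H-thymidine (0.4 μCi) uptake during a 4 h pulse, which started 20 h after compound addition. Before dosing, cells sat 24 h in 0.1% FBS. Values are % times control (100%).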

Structure (SMILES)	T47D: Concentration to elicit a 200% increase in T47D Human breast cell proliferation [1]	In-vivo: Active in Clauberg Assay (rabbit endometrium [2])	In-vivo: Active in McGinty Assay (rabbit endometrium [3])	IC50 [4] [nM]	Osteoblast Cell Proliferation, 3H-thymidine incorporation vs control (100%) ([5]; 10^-6) [%]	Osteoblast Cell Proliferation, 3H-thymidine incorporation vs control (100%) ([5]; 10^-7) [%]	Osteoblast Cell Proliferation, 3H-thymidine incorporation vs control (100%) ([5]; 10^-8) [%]	Osteoblast Cell Proliferation, 3H-thymidine incorporation vs control (100%) ([5]; 10^-9) [%]	Osteoblast Cell Proliferation, 3H-thymidine incorporation vs control (100%) ([5]; 10^-10) [%]
O=S(=O)(c1ccc(I)cc1)N1CCCC(c2ccc(Cl)c(C(F)(F)F)c2)=N1 [Compound 1, 3-(4-Chloro-3-trifluoromethylphenyl)-1-(4-iodobenzenesulfonyl)-1,4,5,6-tetrahydropyridazine]	46	C	M	1.33					
O=S(=O)(/C=C/c1ccc(Cl)cc1)N1CCCC(c2ccc(Cl)c(Cl)c2)=N1 [Compound 170]	4000			2.15	68	98	108	108	108
Cc1ccc(S(=O)(=O)N2CCCC(c3ccc(Cl)c(C(F)(F)F)c3)=N2)cc1 [Compound 82]	608		M	2.95					
O=S(=O)(c1ccc(I)cc1)N1CCCC(c2cc(Br)c(Br)s2)=N1 [Compound 278, 3-(4,5-Dibromo-2-thienyl)-1-(4-iodobenzenesulfonyl)-1,4,5,6-tetrahydropyridazine]	85	C		1					
CC1CCC(c2ccc(Cl)c(Cl)c2)=NN1S(=O)(=O)c1ccc(I)cc1 (centres unmarked) [Compound 282, 1-(4Iodobenzenesulfonyl)-3-(3,4-dichlorophenyl)-6-methyl 1,4,5,6-tetrahydropyridazine]	10.5	C		0.2					
O=C(c1cc(Cl)cc(Cl)c1)N1CCCC(c2ccc(Cl)c(Cl)c2)=N1 [Compound 219]	10000			946	144	171	141	180	178
O=S(=O)(c1ccc(C(F)(F)F)cc1)N1CCCC(c2ccc(Cl)c(Cl)c2)=N1 [Compound 97, 3-(3,4-dichlorophenyl)-1-(4-trifluoromethylbenzenesulphonyl)-1,4,5,6-tetrahydropyridazine]	92	C		0.99					
O=S(=O)(c1ccc(Br)cc1)N1CCCC(c2ccc(Cl)c(C(F)(F)F)c2)=N1 [Compound 115, 3-(4-chloro-3-trifluoromethylphenyl)-1-(4-bromobenzenesulphonyl)-1,4,5,6-tetrahydropyridazine]	72	C		2.09					
O=S(=O)(c1ccc(Cl)cc1)N1CCCC(c2ccc(Cl)c(C(F)(F)F)c2)=N1 [Compound 77]	286	C	M	1.47					
O=S(=O)(c1ccc2ccccc2c1)N1CCCC(c2ccc(Cl)c(Cl)c2)=N1 [Compound 42, 3-(3,4-dichlorophenyl)-1-(2-naphthylenesulfonyl)-1,4,5,6-tetrahydropyridazine]	321		M	0.97	135	144	155	146	166
O=S(=O)(c1cccc(C(F)(F)F)c1)N1CCCC(c2ccc(Cl)cc2)=N1 [Compound 35]			M	3.01	82	101	123	150	154
O=S(=O)(c1ccc2c(c1)CCCC2)N1CCCC(c2ccc(Cl)c(C(F)(F)F)c2)=N1 [Compound 78]	10000	C	M	2.44					
O=S(=O)(c1cc(Cl)cc(Cl)c1)N1CCCC(c2ccc(Cl)c(C(F)(F)F)c2)=N1 [Compound 80]	85		M	0.79					
O=S(=O)(c1ccc(C(F)(F)F)cc1)N1CCCC(c2ccc(Cl)c(C(F)(F)F)c2)=N1 [Compound 125, 3-(4-chloro-3-trifluoromethylphenyl)-1-(4-trifluoromethylbenzenesulphonyl)-1,4,5,6-tetrahydropyridazine]	166	C		6.66					
Cc1ccc(S(=O)(=O)N2CCCC(c3ccc(Cl)c(Cl)c3)=N2)cc1 [Compound 41, 3-(3,4-dichlorophenyl)-1-(4-methylbenzenesulphonyl)-1,4,5,6-tetrahydropyridazine]	4000		M	1.96	138	158	166	144	116
O=S(=O)(c1cc(Cl)ccc1Cl)N1CCCC(c2ccc(Cl)c(Cl)c2)=N1 [Compound 22, 3-(3,4-dichlorophenyl)-1-(2,5-dichlorobenzenesulphonyl)-1,4,5,6-tetrahydropyridazine]	10000			0.54	86	78	66	59	40
CC1CCC(c2ccc(Cl)c(C(F)(F)F)c2)=NN1S(=O)(=O)c1ccc(I)cc1 (centres unmarked) [Compound 281, 1-(4-Iodobenzenesulfonyl)-3-(3-trifluoromethyl-4-chlorophenyl)-6-methyl-1,4,5,6-tetrahydropyridazine]	10	C		0.02					
